Earlier results as cited in patent US20040023897A1, “Methods for preventing or treating disease mediated by toxin-secreting bacteria” (priority 2001, published 2004).

What was measured:
V-ATPases [1] = system: V-ATPases
V-ATPases [2] = system: V-ATPases; remark: listed apart in the source

SMILES	concentration at which reversible inhibition of proton translocation occurs (V-ATPases [2])	also measured
CCN1C(=O)C=CC1=O [N-ethylmaleimide]	–	concentration at which inhibition of ATP hydrolysis occurs (V-ATPases [1]): low micromolar concentrations
C(=NC1CCCCC1)=NC1CCCCC1 [DCCD, N,N′-dicyclohexylcarbodiimide]	–	inhibition of proton pumping (V-ATPases [2]; micromolar concentrations of DCCD): complete and irreversible inhibition
CO/C1=C\C(C)=C\[C@@H](C)[C@@H](O)[C@@H](C)C/C(C)=C/C=C/[C@H](OC)[C@@H]([C@@H](C)[C@@H](O)[C@H](C)[C@@]2(O)C[C@@H](O)[C@H](C)[C@@H](C(C)C)O2)OC1=O [Bafilomycin A1]	sub-micromolar concentrations	–
C/C=C/[C@H]1O[C@@](O)([C@@H](C)[C@H](O)[C@H](C)[C@H]2OC(=O)/C(OC)=C/C(C)=C/[C@@H](C)[C@@H](O)[C@@H](CC)[C@@H](O)[C@H](C)C/C(C)=C/C=C/[C@@H]2OC)C[C@@H](O[C@H]2C[C@@H](O)[C@H](OC(N)=O)[C@@H](C)O2)[C@@H]1C [concanamycin A]	sub-micromolar concentrations	–
